Measurements taken from article PMC8365602 (Journal of Medicinal Chemistry, 2021).

How the values were obtained:
[1] = system: monocytes; experiment: Monocyte membrane integrity (LDH release); assay type: cell-based, human; conditions: higher concentrations (>1 μM)
Method: To measure mitochondrial dehydrogenase activity, 3-(4,5-dimethylthiazol-2-yl)-2,5-diphenyltetrazolium bromide (MTT) (20 μL, 5 mg/mL, Sigma-Aldrich) was added to PBMC. After 4 h in the darkness, the formed formazan product was solubilized (10% SDS in 20 mM HCl) and the absorbance was read at 570 nm using a Multiskan Spectrum microplate reader (Thermo Fisher Scientific).[81]
LDH release was measured in monocytes using a CytoTox 96 nonradioactive cytotoxicity assay (Promega, Madison, WI) according to the manufacturer’s instruction using Triton X-100 (0.8%) as the maximum LDH release control.

[2] = biological target: T1, human recombinant sEH (Homo sapiens, UniProt P34913); experiment: sEH activity; assay type: biochemical
T1 construct: made in house; host or cells: Sf9 insect cells (recombinant baculovirus)
T1 sequence (P34913 whole entry): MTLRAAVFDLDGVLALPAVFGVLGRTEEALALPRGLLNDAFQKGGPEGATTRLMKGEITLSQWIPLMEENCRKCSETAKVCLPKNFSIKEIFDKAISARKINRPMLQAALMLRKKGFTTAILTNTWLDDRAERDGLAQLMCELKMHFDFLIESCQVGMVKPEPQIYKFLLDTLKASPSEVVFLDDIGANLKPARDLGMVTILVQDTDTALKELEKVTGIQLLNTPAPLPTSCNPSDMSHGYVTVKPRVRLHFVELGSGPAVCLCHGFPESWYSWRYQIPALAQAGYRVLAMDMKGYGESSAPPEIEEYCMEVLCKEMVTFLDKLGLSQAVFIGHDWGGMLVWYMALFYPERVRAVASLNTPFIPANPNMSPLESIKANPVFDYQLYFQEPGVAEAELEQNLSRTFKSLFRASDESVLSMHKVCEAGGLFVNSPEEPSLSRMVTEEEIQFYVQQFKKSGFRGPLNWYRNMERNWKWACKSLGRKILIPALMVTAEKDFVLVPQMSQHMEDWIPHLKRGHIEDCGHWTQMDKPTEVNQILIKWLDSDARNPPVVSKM
Method: Human recombinant sEH was expressed in Sf9 insect cells and purified by affinity chromatography.[83] Briefly, Sf9 cells were infected with a recombinant baculovirus and lysed after 72 h in 50 mM NaHPO4 pH 8, 300 mM NaCl, 10% glycerol, 1 mM EDTA, 1 mM phenylmethanesulfonyl fluoride, 10 μg/mL leupeptin, and 60 μg/mL STI by sonication (3 × 10 s, 4 °C). […] Elution with 4-fluorochalcone oxide in PBS pH 7.4 with 1 mM dithiothreitol and 1 mM EDTA yielded sEH, which was dialyzed and concentrated.
Purified sEH (60 ng) in 25 mM Tris HCl pH 7 with 0.1 mg/mL bovine serum albumin (BSA) was preincubated with the vehicle (DMSO) or 27a for 10 min at room temperature. The sEH substrate PHOME (50 μM, Cayman Chemicals) was added to start the enzymatic reaction, which was stopped after 60 min in darkness by addition of ZnSO4 (200 mM). The formation of the fluorescent product 6-methoxynaphtaldehyde was measured using a NOVOstar fluorescence microplate reader (BMG Labtech, Ortenberg, Germany), with excitation at 330 and emission at 465 nm.

[3] = system: mice sensitized to ovalbumin; experiment: Experimental model of murine asthma (ovalbumin sensitization); assay type: in vivo; conditions: 10 mg/kg p.o.
Method: Male CD-1 mice (33–39 g, 6–8 weeks, Charles River Laboratories; Calco, Italy) and female BALB/c mice (20 g, 8 weeks, Charles River Laboratories) were fed with standard rodent chow and water and acclimated for 4 days at a 12 h light and 12 h dark schedule in a constant air-conditioned environment (21 ± 2 °C). Mice were randomly assigned to groups, and experiments were carried out during the light phase.
BALB/c mice received 27a (p.o.) or vehicle (0.5% carboxymethylcellulose in 10% Tween 20; 0.5 mL) on days 0 and 7, 1 h (p.o) before being sensitized to ovalbumin (100 μg adsorbed to 3.3 mg of aluminum hydroxide gel, s.c., Sigma-Aldrich). Mice were sacrificed on days 1, 3, 8, 10, or 21 to collect lung and plasma. Bronchi were cut in rings of 1 to 2 mm length, placed in organ baths, and fixed to an isometric force transducer 7006 connected to a Powerlab 800 (AD Instruments, Ugo Basile, Comerio, Italy). After stretching the rings to a resting tension of 0.5g and equilibration for at least 30 min, the rings were challenged with carbachol (1 μM) until a reproducible response was observed. To assess bronchial reactivity, the cumulative response to carbachol (0.001 to 3.16 μM) was measured. Bronchial relaxation was determined from the cumulative response of precontracted bronchial tissues to salbutamol. Compound 27a, LTB4, and LTB4 isomers were analyzed in plasma and lung homogenates by UPLC-MS/MS. Lung tissue (100 mg/mL) was homogenized in PBS pH 7.4 at 4 °C for 1–2 min using an Omni tissue homogenizer (Omni, Kennesaw, GA).

[4] = biological target: T2, 5-LOX (Homo sapiens, UniProt P09917); experiment: Tryptophan fluorescence spectroscopy of 5-LOX; assay type: binding; set-up: made in house; host or cells: E. coli Bl21 (DE3); conditions: 5-LOX titrated with compound, 0–10 μM
T2 sequence (P09917 1-674): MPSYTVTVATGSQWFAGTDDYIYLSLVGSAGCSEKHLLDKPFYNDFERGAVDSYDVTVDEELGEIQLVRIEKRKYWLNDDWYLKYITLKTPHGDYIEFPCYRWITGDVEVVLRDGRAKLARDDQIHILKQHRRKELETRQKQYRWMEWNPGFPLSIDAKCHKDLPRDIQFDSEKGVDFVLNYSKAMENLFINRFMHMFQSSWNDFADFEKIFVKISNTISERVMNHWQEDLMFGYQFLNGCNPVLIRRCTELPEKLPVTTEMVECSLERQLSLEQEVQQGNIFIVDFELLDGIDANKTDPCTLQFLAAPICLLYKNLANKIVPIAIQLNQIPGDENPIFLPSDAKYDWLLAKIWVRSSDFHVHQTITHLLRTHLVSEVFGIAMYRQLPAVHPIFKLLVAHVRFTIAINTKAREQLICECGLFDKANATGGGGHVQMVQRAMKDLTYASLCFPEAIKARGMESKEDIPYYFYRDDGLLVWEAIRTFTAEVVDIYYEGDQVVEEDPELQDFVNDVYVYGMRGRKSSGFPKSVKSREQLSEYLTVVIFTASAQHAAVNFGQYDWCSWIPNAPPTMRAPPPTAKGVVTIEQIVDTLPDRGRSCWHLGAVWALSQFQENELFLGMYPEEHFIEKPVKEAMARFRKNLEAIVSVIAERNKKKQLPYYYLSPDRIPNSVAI
Method: Fluorescence spectroscopy measurements on human recombinant 5-LOX (Abcam, Cambridge, U.K.) were conducted in PBS pH 7.4 at 25 °C using an Edinburgh Instruments FLS920 Series fluorescence spectrophotometer (Livingston, U.K.). […] The concentration range of 5-LOX used through the experiments was 0.3–0.6 μM. 5-LOX was titrated with a stock solution of the test compounds in dimethylformamide to yield an experimental compound concentration in the range of 0–10 μM. The final dimethylformamide concentration was kept under 5%. After each addition, the sample was incubated for 10 min before measurement. The fluorescence emission intensity values were corrected for dilution and background noise. All conditions were measured independently and in duplicate.
The fluorescence spectral shifts were analyzed by monitoring the alterations in the spectral center of mass by estimating the intensity-averaged emission wavelength (⟨λ⟩), as calculated from the following equation, where Fi is the fluorescence emission intensity at wavenumber νi, and the summation was performed over the range of measured F values [drawing 1] 1

[5] = biological target: T2, 5-LOX; experiment: Cell-free 5-LOX activity (isolated human recombinant enzyme)

C/C(=C\CC/C(C)=C/CC[C@]1(C)CCc2c(C)c(O)c(C)c(C)c2O1)CCC=C(CO)CO [Compound 27a, α-amplexichromanol]
LDH release from monocytes at higher concentrations [1]: induced a rapid release of lactate dehydrogenase
sEH inhibition [2]: not substantially inhibited
Lung levels of LTB4 and its isomers ([3]; day 3): lowered lung levels of LTB4 and its isomers
Adrenergic bronchial relaxation induced by salbutamol ([3]; day 21): fully restored the adrenergic bronchial relaxation induced by salbutamol
Ovalbumin-induced bronchial hyperreactivity to carbachol ([3]; day 21): blocked ovalbumin-induced bronchial hyperreactivity to carbachol
Shift of spectral center of mass of intrinsic Trp fluorescence of 5-LOX [4]: less pronounced
Effect of Triton X-100 on 5-LOX inhibition ([5]; Triton X-100 (0.01%)): did not substantially impair 5-LOX inhibition
Dependence of 5-LOX inhibition on substrate (arachidonic acid) concentration ([5]; human recombinant 5-LOX): independent of the substrate concentration
Reversibility of 5-LOX inhibition ([5]; preincubation 15 min, 10-fold dilution): reversible
IC50 ([5]; read-out: 5-LOX enzyme IC50, isolated human 5-LOX, cell-free, mean ± SEM): 110 ± 30 nM
remaining activity at 1 µM ([5]; read-out: 5-LOX enzyme residual activity at 1 μM): 0.1%
